Results taken from the supplement of paper PMC10307832.

How the values were obtained:
Assay in all cases: relative viability (nuclei count vs DMSO), 5 days (fraction); higher = more cells survive
[1] = compound: CCn1c(-c2nonc2N)nc2cnc(Oc3cccc(NC(=O)c4ccc(OCCN5CCOCC5)cc4)c3)cc21 + Nc1ncn([C@H]2C[C@H](O)[C@@H](CO)O2)c(=O)n1 [Decitabine] (partner 2 µM)
Method in brief: (§1)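 Medians of duplicate plates are given as relative viability. That measure is the nuclei count in treated wells divided by the count in vehicle wells. Counts were taken on 4× images of lung cancer cell lines in 1536-well plates, 5 days after pin-tool dosing the day after seeding with one drug alone or a fixed anchor-drug dose plus five library-drug doses (not always all listed) in √10 steps.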

[2] = compound: N=C1NC(=O)/C(=C/c2ccc(O)cc2)S1 [Mirin] + C[C@]1(O)C[C@@H](c2nc(-c3ccc4ccc(-c5ccccc5)nc4c3)c3c(N)nccn32)C1 [Linsitinib] (partner 1 µM)
Method in brief: as §1

[3] = compound: N=C1NC(=O)/C(=C/c2ccc(O)cc2)S1 [Mirin] + N=C(N)NC(=N)NCCc1ccccc1 [Phenformin] (partner 250 µM)
Method in brief: as §1

[4] = compound: CCn1c(-c2nonc2N)nc2cnc(Oc3cccc(NC(=O)c4ccc(OCCN5CCOCC5)cc4)c3)cc21 + COc1cc2c(Oc3ccc(NC(=O)C4(C(=O)Nc5ccc(F)cc5)CC4)cc3F)ccnc2cc1OCCCN1CCOCC1 [Foretinib] (partner 0.25 µM)
Method in brief: as §1

Cell Line UMC-11 has a relative viability ([1]; first compound 0.04 µM) of 0.596, a relative viability ([1]; first compound 0.1265 µM) of 0.528 and a relative viability ([1]; first compound 0.4 µM) of 0.423. It also gave a relative viability ([1]; first compound 1.265 µM) of 0.125, a relative viability ([1]; first compound 4 µM) of 0.269 and a relative viability ([2]; first compound 0.25 µM) of 1. It also gave a relative viability ([2]; first compound 0.7906 µM) of 0.963, a relative viability ([2]; first compound 2.5 µM) of 1.07 and a relative viability ([2]; first compound 7.906 µM) of 0.803. For the same cell line, the relative viability ([2]; first compound 25 µM) was 0.66, the relative viability ([3]; first compound 0.25 µM) was 0.351 and the relative viability ([3]; first compound 0.7906 µM) was 0.272. The relative viability ([3]; first compound 2.5 µM) was 0.334, the relative viability ([3]; first compound 7.906 µM) was 0.32 and the relative viability ([3]; first compound 25 µM) was 0.236. For the same cell line, the relative viability ([4]; first compound 0.04 µM) was 1.04, the relative viability ([4]; first compound 0.1265 µM) was 0.903 and the relative viability ([4]; first compound 0.4 µM) was 0.68. For the same cell line, the relative viability ([4]; first compound 1.265 µM) was 0.245 and the relative viability ([4]; first compound 4 µM) was 0.186.
